Here are results for two compounds from patent US10570131B2, “Heterocyclic compounds and their use in preventing or treating bacterial infections” (MUTABILIS, priority 2015, dated 2020).

Assay type in all cases: cell-based
For assay [1], the system named is K. pneumoniae 6299. In words: MIC of ceftazidime alone and in combination with compounds (synergy), broth microdilution. Here is the method:
(§1) Compounds of the present invention were assessed against genotyped bacterial strains alone or in combination with the β-lactam ceftazidime (CAZ). […] Briefly, compounds alone according to the invention were prepared in DMSO and spotted (2 μL each) on sterile polystyrene plates (Corning, 3788). […] Log phase bacterial suspensions were adjusted to a final density of 5×10^5 cfu/mL in cation-adjusted Mueller-Hinton broth (Becton-Dickinson) and added to each well (98 μL). Microplates were incubated for 16-20 h at 35° C. in ambient air. The MIC of the compounds was defined as the lowest concentration of said compounds that prevented bacterial growth as read by visual inspection.

In the next assay the test system is P. aeruginosa UFR48. The description is as above. To be noted: Pseudomonas aeruginosa, UFR48, read-out: MIC of CAZ. Here is the method:
as §1

The subject of assay [2] is E. coli 190317. Described as above. To be noted: MIC of ceftazidime with compound fixed at 4 μg/mL; strain 190317 (TEM-1, SHV-12, CTX-M-15, OXA-1).
The next assay deals with E. coli 131119. In words: microbe, parasite or virus in culture. The following applies: strain 131119 (TEM-1, OXA-48). The procedure:
as §1

The subject of assay [3] is K. pneumoniae 6299. In words: microbe, parasite or virus in culture. To be noted: strain 6299 (TEM-1, SHV-11, OXA-163). Here is the method: as §1
The subject of assay [4] is P. aeruginosa CIP105250. In words: microbe, parasite or virus in culture. The following applies: strain CIP105250 (OXA-15). Here is the method:
as §1

Assay [5] concerns K. pneumoniae BAA-1898. The assay can be described thus: microbe, parasite or virus in culture. To be noted: strain BAA-1898 (TEM-1, SHV-11, SHV-12, KPC-2). Here is the method:
as §1

Assay [6] concerns E. cloacae P99. The assay can be described thus: MIC of ceftazidime alone and in combination with compounds (synergy), broth microdilution. The following applies: MIC of ceftazidime with compound fixed at 4 μg/mL; strain P99 (AmpC). A general note: Dilution methods test growth across graded concentrations, often in twofold steps.
The next assay relates to E. cloacae UFR38. The assay can be described thus: MIC of compounds alone, broth microdilution. The following applies: strain UFR38 (CTX-M-15, NDM-1). The procedure: as §1
The subject of another assay is E. cloacae UFR70. In words: MIC of compounds alone, broth microdilution. The following applies: strain UFR70 (TEM-1, CTX-M-15, CMY-2, OXA-1, Porin loss). Here is the method: as §1
The test system of assay [7] is E. coli 190317. The assay can be described thus: MIC of compounds alone, broth microdilution. To be noted: strain 190317 (TEM-1, SHV-12, CTX-M-15, OXA-1). Here is the method:
as §1

The test system of the next assay is E. coli UFR61O. In words: MIC of compounds alone, broth microdilution. The following applies: strain UFR61O (TEM-1, KPC-2). The procedure: as §1
For the next assay, the system named is K. pneumoniae UFR77. In words: MIC of compounds alone, broth microdilution. To be noted: strain UFR77 (CMY-2). The procedure: as §1
The test system of the next assay is E. coli UFR18. In words: MIC of compounds alone, broth microdilution. To be noted: strain UFR18 (CTX-M-15, OXA-204). The procedure:
as §1

A further assay concerns K. oxytoca UFR21. In words: MIC of compounds alone, broth microdilution. The following applies: strain UFR21 (TEM-1, CTX-M-15, OXA-48). Here is the method: as §1
The next assay has as its system E. cloacae UFR85. The assay can be described thus: MIC of compounds alone, broth microdilution. To be noted: strain UFR85 (TEM-1, CTX-M-15, derepressed AmpC). The procedure: as §1
Another assay has as its system K. pneumoniae UFR68. The assay can be described thus: MIC of compounds alone, broth microdilution. To be noted: strain UFR68 (TEM-1, SHV-11, CTX-M-15, KPC-3). Here is the method: as §1
Assay [8] has as its system P. aeruginosa CIP107051. In words: MIC of compounds alone, broth microdilution. The following applies: strain CIP107051 (TEM-24). The procedure:
as §1

The subject of assay [9] is E. cloacae P99. The assay can be described thus: MIC of compounds alone, broth microdilution. To be noted: strain P99 (AmpC). Here is the method: as §1
Another assay deals with C. murliniae 210102. The assay can be described thus: MIC of compounds alone, broth microdilution. To be noted: strain 210102 (VIM-4). Here is the method:
as §1

In another assay the test system is E. cloacae 260508. In words: MIC of compounds alone, broth microdilution. The following applies: strain 260508 (TEM-1, CTX-M-15). The procedure: as §1
In another assay the test system is E. coli UFR32. The assay can be described thus: MIC of compounds alone, broth microdilution. The following applies: strain UFR32 (TEM-1, VEB-1, OXA-10). Here is the method: as §1
In a further assay the test system is E. coli RGN238. The assay can be described thus: MIC of compounds alone, broth microdilution. To be noted: strain RGN238 (OXA-1). Here is the method: as §1
Another assay relates to E. coli UFR74. In words: MIC of compounds alone, broth microdilution. To be noted: strain UFR74 (SHV-1, DHA-1). Here is the method: as §1
A further assay has as its system E. coli UFR52. The assay can be described thus: MIC of compounds alone, broth microdilution. To be noted: strain UFR52 (TEM-1, SHV-12, IMP-8). The procedure:
as §1

A further assay deals with K. pneumoniae 200047. The assay can be described thus: MIC of compounds alone, broth microdilution. The following applies: strain 200047 (TEM-1, SHV-32, CTX-M-15, OXA-1). Here is the method: as §1
The test system of a further assay is K. pneumoniae UFR24. In words: MIC of compounds alone, broth microdilution. The following applies: strain UFR24 (TEM-1, SHV-2, SHV-11, OXA-1, OXA-48, OXA-47). Here is the method: as §1
The test system of another assay is K. pneumoniae 160143. The assay can be described thus: MIC of compounds alone, broth microdilution. To be noted: strain 160143 (TEM-1, SHV-1, CTX-M-15, KPC-2, OXA-1). The procedure:
as §1

Assay [10] has as its system P. aeruginosa CIP105250. The assay can be described thus: MIC of ceftazidime alone and in combination with compounds (synergy), broth microdilution. The following applies: MIC of ceftazidime with compound fixed at 4 μg/mL; strain CIP105250 (OXA-15). Here is the method: as §1
Assay [11] concerns K. pneumoniae BAA-1898. The assay is described as above. To be noted: MIC of ceftazidime with compound fixed at 4 μg/mL; strain BAA-1898 (TEM-1, SHV-11, SHV-12, KPC-2). Here is the method: as §1
For assay [12], the system named is P. aeruginosa CIP107051. The assay is described as above. To be noted: MIC of ceftazidime with compound fixed at 4 μg/mL; strain CIP107051 (TEM-24). The procedure:
as §1

By MIC is commonly meant the smallest concentration in the dilution series that meets the test's criterion for growth inhibition. Consider `CC(C)(O/N=C(\C(=O)N[C@@H]1C(=O)N2C(C(=O)[O-])=C(C[n+]3ccccc3)CS[C@H]12)c1csc(N)n1)C(=O)O` [CAZ, ceftazidime, reference compound], for which the minimum inhibitory concentration (MIC) came out at 256 µg/mL in the assay with K. pneumoniae 6299 [1] (Klebsiella pneumoniae, 6299, read-out: MIC of CAZ) and 256 µg/mL in the assay with P. aeruginosa UFR48.
Turning to `NCCON=C1C[C@@H](C(N)=O)N2C[C@@H]1N(OS(=O)(=O)[O-])C2=O.O=C(O)C(F)(F)F.[Na+]` [Example 4, sodium and 2,2,2-trifluoroacetate [(2S, 5S)-4-(2-ammoniumethoxyimino)-2-carbamoyl-7-oxo-1,6-diazabicyclo[3.2.1]octan-6-yl] sulfate], the “MIC, combination of CAZ and compounds of the invention at 4 μg/mL” value was less than 0.25 µg/mL in the assay with E. coli 190317 [2]; 0.25 µg/mL in the assay on E. cloacae P99 [6]; 0.25 µg/mL with K. pneumoniae 6299 [1] (MIC of ceftazidime with compound fixed at 4 μg/mL, strain 6299 (TEM-1, SHV-11, OXA-163)); 8 µg/mL in the assay on P. aeruginosa CIP105250 [10]; no more than 0.125 µg/mL in the assay with K. pneumoniae BAA-1898 [11]; 8 µg/mL in the assay with P. aeruginosa CIP107051 [12]. The “MIC compounds of the invention alone” value is greater than 32 µg/mL with E. coli 131119; greater than 32 µg/mL in the assay with K. pneumoniae 6299 [3]; greater than 32 µg/mL in the assay on P. aeruginosa CIP105250 [4]; greater than 32 µg/mL in the assay with K. pneumoniae BAA-1898 [5]; 2 µg/mL with E. cloacae UFR38; greater than 32 µg/mL in the assay on E. cloacae UFR70. Also, the “MIC compounds of the invention alone” value in the assay on E. coli 190317 [7] is 4 µg/mL; in the assay with E. coli UFR61O it was greater than 32 µg/mL; in the assay on K. pneumoniae UFR77, greater than 32 µg/mL; in the assay on E. coli UFR18, 4 µg/mL; in the assay on K. oxytoca UFR21, greater than 32 µg/mL; in the assay with E. cloacae UFR85, greater than 32 µg/mL. Moreover, the “MIC compounds of the invention alone” value is greater than 32 µg/mL with K. pneumoniae UFR68; 32 µg/mL in the assay on P. aeruginosa CIP107051 [8]; 16 µg/mL with E. cloacae P99 [9]; greater than 32 µg/mL in the assay on C. murliniae 210102; 16 µg/mL with E. cloacae 260508; 4 µg/mL with E. coli UFR32. The “MIC compounds of the invention alone” value in the assay with E. coli RGN238 was greater than 32 µg/mL; in the assay with E. coli UFR74 it was greater than 32 µg/mL; in the assay on E. coli UFR52, 8 µg/mL; in the assay with K. pneumoniae 200047, greater than 32 µg/mL; with K. pneumoniae UFR24 it was greater than 32 µg/mL; in the assay with K. pneumoniae 160143 it was greater than 32 µg/mL.
